Our source for the Activity and hemolysis values is ChEMBL document CHEMBL1671776, “Convergent evolution-guided design of antimicrobial peptides derived from influenza A virus hemagglutinin” (J Med Chem, 2011).

The test system of one data set is Priestia megaterium. The data set is described as follows: Antimicrobial activity against Bacillus megaterium assessed as lethal concentration. Type of data set: functional.
The test system of a further data set is Micrococcus luteus. As to the kind of experiment: Antimicrobial activity against Micrococcus luteus assessed as lethal concentration. Type of data set: functional.
The subject of data set [1] is Bacillus sp. The data set is described as follows: Antimicrobial activity against Bacillus sp. DM-1 assessed as lethal concentration. Type of data set: functional.
Data set [2] concerns Agrobacterium tumefaciens. The data set is described as follows: Antimicrobial activity against Agrobacterium tumefaciens assessed as lethal concentration. Type of data set: functional.
Another data set has as its system Pseudomonas aeruginosa. The data set is described as follows: Antimicrobial activity against Pseudomonas aeruginosa assessed as lethal concentration. Type of data set: functional.
The next data set has as its system Salmonella typhimurium. As to the kind of experiment: Antimicrobial activity against Salmonella Typhimurium assessed as lethal concentration. The class given is functional.
Another data set concerns Serratia marcescens. As to the kind of experiment: Antimicrobial activity against Serratia marcescens assessed as lethal concentration. The class given is functional.
Another data set relates to Shewanella oneidensis. As to the kind of experiment: Antimicrobial activity against Shewanella oneidensis assessed as lethal concentration. Type of data set: functional.
Data set [3] has as its system Stenotrophomonas. As to the kind of experiment: Antimicrobial activity against Stenotrophomonas YC-1 assessed as lethal concentration. Type of data set: functional.
Data set [4] deals with Stenotrophomonas. As to the kind of experiment: Antimicrobial activity against Stenotrophomonas LZ-1 assessed as lethal concentration. The class given is functional.
The next data set has as its system Klebsiella sp. As to the kind of experiment: Antimicrobial activity against Klebsiella sp. F51-1-2 assessed as lethal concentration. Type of data set: functional.
The test system of a further data set is Pseudomonas putida. The data set is described as follows: Antimicrobial activity against Pseudomonas putida assessed as lethal concentration. The class given is functional.
Another data set relates to Geotrichum candidum. The data set is described as follows: Antifungal activity against Geotrichum candidum assessed as lethal concentration. Type of data set: functional.
Another data set concerns Saccharomyces cerevisiae. As to the kind of experiment: Antimicrobial activity against Saccharomyces cerevisiae assessed as lethal concentration. Type of data set: functional.
A short description of data set [5]: Cytotoxicity against mouse erythrocyte assessed as hemolysis at 50 uM. Type of data set: cell-based. To be noted: erythrocytes, read-out: Activity.
Data set [6] relates to Bacillus sp. The data set is described as follows: Induction of membrane disruption in Bacillus sp. DM-1 at 10 uM after 30 mins using propidium iodide. The class given is functional, organism-based.
[7] abbreviates: Salmonella enterica subsp. enterica serovar Typhimurium.

Active and inactive are the calls of the source. No cut-off for these calls is given here. Some results are limits rather than exact numbers.

Take H-IFGAIAGFIKNGW-NH2: the outcome (in the data set on Priestia megaterium; in data set [2]; in the data set on Pseudomonas aeruginosa; with Salmonella typhimurium (setting [7]); with Shewanella oneidensis; in the data set with Stenotrophomonas [3]) was inactive. Besides, the outcome in the data set on Stenotrophomonas [4], in the data set with Pseudomonas putida and in the data set with Geotrichum candidum was inactive. The Activity in the data set with Micrococcus luteus is 14.1 µM; with Bacillus sp. [1], 5.36 µM; in the data set with Serratia marcescens it was more than 100 µM; in the data set on Klebsiella sp., more than 100 µM; in the data set on Saccharomyces cerevisiae, 83.26 µM.

H-IFGAIAGFIKNGW-OH: the result (in the data set with Priestia megaterium; with Micrococcus luteus; in data set [2]; with Pseudomonas aeruginosa; with Salmonella typhimurium (setting [7]); with Serratia marcescens) was inactive. The outcome in the data set on Shewanella oneidensis, with Stenotrophomonas [3], in the data set with Stenotrophomonas [4], in the data set on Klebsiella sp., with Pseudomonas putida and in the data set with Geotrichum candidum was inactive. The result in the data set on Saccharomyces cerevisiae was inactive. Moreover, the Activity in the data set on Bacillus sp. [1] turned out to be 49.93 µM.

As to H-IFGAIAGFIKNIW-NH2, the Activity in the data set with Priestia megaterium is 14.1 µM; with Micrococcus luteus it was 5.95 µM; in the data set with Bacillus sp. [1], 2.16 µM; in [2], 20.79 µM; with Pseudomonas aeruginosa, 31.55 µM; with Salmonella typhimurium it was more than 100 µM. Also, the Activity with Serratia marcescens is 19.25 µM; with Shewanella oneidensis it was 76.98 µM; in the data set with Stenotrophomonas [3], 76.98 µM; in the data set on Stenotrophomonas [4], more than 100 µM; with Klebsiella sp. it was 23.81 µM; with Pseudomonas putida, 9.78 µM. For the same substance, the Activity stood at 5.36 µM in the data set on Geotrichum candidum and 28.29 µM in the data set on Saccharomyces cerevisiae. Also, in data set [5], the hemolysis at 50 µM came out at 24.1%.

As to H-IFGAIAGFIKNIW-OH, the outcome (in the data set with Priestia megaterium; in the data set with Micrococcus luteus; in [2]; in the data set on Pseudomonas aeruginosa; in the data set with Salmonella typhimurium (setting [7]); with Serratia marcescens) was inactive. Further, the outcome in the data set with Shewanella oneidensis, in the data set on Stenotrophomonas [3], in the data set with Stenotrophomonas [4], in the data set on Klebsiella sp., with Pseudomonas putida and in the data set with Geotrichum candidum was inactive. Further, in the data set with Saccharomyces cerevisiae, the result was inactive. For the same substance, in the data set on Bacillus sp. [1], the Activity is 49.93 µM.

Regarding H-IFGAIAGLLKNIF-NH2 [Meucin-13], the Activity in the data set on Priestia megaterium is 0.25 µM; with Micrococcus luteus, 2.9 µM; in the data set on Bacillus sp. [1], 2 µM; in data set [2] it was 11.8 µM; with Salmonella typhimurium it was more than 50 µM; with Shewanella oneidensis, 6.2 µM. Also, the Activity in the data set on Stenotrophomonas [3] was 6.2 µM; in the data set on Geotrichum candidum, more than 50 µM; with Saccharomyces cerevisiae it was 18.3 µM. The result in the data set with Pseudomonas aeruginosa and in the data set with Serratia marcescens was inactive. Also, the result with Bacillus sp. [6] was Active. For the same substance, the hemolysis at 50 µM in [5] came out at 64.7%.
